In ChEMBL document CHEMBL1909046, “DrugMatrix in vitro pharmacology data”:

Experiments:
[1] = target: C-C chemokine receptor type 2 (Homo sapiens, UniProt P41597); format: cell membranes, CHO-K1, Membrane; conditions: cho-k1; further: in other assays of this panel Not Active means under 50% inhibition at 10 µM
[2] = DRUGMATRIX: GABAA, Muscimol, Central radioligand binding (ligand: [3H] Muscimol); format: cell membranes, Rattus norvegicus, Wistar, Brain, Membrane; conditions: Not Active = under 50% inhibition at 10 µM
[3] = target: T1, 3-hydroxy-3-methylglutaryl-coenzyme A reductase (Homo sapiens, UniProt P04035); parameters: species or system Escherichia coli;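 further: enzyme inhibition assay of HMG-CoA reductase using radiolabeled [14C]HMG-CoA as substrate; in other assays of this panel Not Active means under 50% inhibition at 10 µM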
T1 sequence (P04035 whole entry): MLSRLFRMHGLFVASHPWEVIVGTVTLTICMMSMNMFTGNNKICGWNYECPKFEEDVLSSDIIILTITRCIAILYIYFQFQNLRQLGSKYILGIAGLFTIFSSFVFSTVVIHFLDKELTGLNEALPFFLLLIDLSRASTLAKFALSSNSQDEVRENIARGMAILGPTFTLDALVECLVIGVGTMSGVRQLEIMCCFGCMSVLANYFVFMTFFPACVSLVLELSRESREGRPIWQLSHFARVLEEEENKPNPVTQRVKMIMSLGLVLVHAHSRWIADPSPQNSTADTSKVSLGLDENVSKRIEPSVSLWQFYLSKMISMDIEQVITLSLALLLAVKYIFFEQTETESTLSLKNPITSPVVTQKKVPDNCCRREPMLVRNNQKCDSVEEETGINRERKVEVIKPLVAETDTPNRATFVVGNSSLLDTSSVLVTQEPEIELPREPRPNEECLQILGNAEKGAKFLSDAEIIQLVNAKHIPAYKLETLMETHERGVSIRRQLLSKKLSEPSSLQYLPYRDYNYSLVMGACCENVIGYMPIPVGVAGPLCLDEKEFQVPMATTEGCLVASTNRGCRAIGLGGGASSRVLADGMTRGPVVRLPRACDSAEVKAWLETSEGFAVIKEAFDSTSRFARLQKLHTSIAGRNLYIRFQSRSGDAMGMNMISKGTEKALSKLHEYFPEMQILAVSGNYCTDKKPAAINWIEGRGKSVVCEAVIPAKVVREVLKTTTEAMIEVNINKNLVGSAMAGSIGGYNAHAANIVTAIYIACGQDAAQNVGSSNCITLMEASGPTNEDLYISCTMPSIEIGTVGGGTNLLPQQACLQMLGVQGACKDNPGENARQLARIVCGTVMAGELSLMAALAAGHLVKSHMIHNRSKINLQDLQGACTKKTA

[4] = target: T2, Neuropeptide Y receptor type 1 (Homo sapiens, UniProt P25929); format: cell membranes, Membrane; conditions: sk-n-mc; further: in other assays of this panel Not Active means under 50% inhibition at 10 µM
T2 sequence (P25929 whole entry): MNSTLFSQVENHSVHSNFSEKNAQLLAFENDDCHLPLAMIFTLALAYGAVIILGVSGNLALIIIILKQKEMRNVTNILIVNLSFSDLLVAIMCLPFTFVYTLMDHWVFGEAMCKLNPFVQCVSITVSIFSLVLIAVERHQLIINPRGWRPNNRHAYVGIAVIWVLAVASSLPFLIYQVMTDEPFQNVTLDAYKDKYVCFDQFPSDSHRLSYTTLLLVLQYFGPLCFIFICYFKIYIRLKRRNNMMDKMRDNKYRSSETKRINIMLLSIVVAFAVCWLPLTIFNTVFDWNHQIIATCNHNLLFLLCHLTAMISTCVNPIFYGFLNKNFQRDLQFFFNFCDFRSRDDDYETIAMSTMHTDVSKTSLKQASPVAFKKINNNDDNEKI

[5] = target: T3, Angiotensin-converting enzyme (Oryctolagus cuniculus, UniProt P12822); assay: biochemical; format: tissue-based, Lung;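 further: enzymatic inhibition of angiotensin-converting enzyme measured with FAPGG as the substrate; in other assays of this panel Not Active means under 50% inhibition at 10 µM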
T3 sequence (P12822 whole entry): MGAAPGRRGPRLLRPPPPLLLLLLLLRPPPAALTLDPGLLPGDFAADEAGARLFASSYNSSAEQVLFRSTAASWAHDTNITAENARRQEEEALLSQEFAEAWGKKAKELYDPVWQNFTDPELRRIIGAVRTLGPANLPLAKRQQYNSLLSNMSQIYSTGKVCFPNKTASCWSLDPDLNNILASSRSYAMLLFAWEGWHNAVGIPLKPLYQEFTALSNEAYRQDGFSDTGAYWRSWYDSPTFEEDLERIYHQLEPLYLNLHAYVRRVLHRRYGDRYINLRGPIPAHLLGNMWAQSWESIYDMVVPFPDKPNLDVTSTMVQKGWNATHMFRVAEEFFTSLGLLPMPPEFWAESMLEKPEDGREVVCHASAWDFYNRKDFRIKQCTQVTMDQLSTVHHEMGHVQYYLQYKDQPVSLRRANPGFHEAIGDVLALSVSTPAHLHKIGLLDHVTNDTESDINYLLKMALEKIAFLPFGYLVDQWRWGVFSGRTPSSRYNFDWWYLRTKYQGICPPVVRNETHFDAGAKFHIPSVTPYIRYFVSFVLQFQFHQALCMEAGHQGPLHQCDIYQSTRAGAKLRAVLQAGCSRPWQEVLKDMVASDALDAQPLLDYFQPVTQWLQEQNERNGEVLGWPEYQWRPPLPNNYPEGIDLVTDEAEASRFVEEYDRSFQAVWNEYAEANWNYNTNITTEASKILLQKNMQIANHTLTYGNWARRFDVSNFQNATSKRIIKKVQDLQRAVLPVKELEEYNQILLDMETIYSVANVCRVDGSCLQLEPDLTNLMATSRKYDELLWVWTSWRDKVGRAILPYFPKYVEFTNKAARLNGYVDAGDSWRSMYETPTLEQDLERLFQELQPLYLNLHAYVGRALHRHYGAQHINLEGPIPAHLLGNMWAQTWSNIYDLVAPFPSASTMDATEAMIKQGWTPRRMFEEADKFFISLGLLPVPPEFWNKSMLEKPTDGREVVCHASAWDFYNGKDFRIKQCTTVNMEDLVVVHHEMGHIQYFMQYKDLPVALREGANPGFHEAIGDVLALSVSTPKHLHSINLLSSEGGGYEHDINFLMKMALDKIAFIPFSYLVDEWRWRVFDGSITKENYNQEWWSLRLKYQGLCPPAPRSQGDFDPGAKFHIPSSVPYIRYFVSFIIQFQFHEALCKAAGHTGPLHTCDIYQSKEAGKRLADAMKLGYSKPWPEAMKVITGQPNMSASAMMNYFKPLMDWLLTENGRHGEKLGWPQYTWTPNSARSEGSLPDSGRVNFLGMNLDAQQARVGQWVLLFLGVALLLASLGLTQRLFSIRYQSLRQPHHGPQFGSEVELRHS

Neutrophil elastase = target: T4, Neutrophil elastase (Homo sapiens, UniProt P08246); format: tissue-based
T4 sequence (P08246 whole entry): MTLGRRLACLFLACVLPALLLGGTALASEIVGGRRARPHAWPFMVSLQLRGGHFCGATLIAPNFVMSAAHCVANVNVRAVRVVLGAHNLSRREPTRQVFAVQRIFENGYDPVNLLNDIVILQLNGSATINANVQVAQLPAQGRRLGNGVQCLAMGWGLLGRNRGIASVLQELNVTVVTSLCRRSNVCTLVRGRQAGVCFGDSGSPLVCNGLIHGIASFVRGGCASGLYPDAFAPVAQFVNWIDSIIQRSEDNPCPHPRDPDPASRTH

Sequence of C-C chemokine receptor type 2 (P41597 whole entry): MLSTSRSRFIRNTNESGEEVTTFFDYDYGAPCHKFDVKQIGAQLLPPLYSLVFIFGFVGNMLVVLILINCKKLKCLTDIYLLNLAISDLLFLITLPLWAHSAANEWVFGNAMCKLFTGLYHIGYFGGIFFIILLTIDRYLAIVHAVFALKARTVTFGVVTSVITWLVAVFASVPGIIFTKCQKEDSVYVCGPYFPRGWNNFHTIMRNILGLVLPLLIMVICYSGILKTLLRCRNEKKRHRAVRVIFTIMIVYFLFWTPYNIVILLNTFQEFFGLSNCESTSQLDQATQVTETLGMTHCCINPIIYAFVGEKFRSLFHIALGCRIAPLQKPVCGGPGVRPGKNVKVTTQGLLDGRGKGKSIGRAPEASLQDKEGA

Row | Structure (SMILES) | IC50 [1] | IC50 [2] | Ki [2] | IC50 [3] | IC50 [4] | IC50 [5] | IC50 (Neutrophil elastase) | IC50 ([3]; read-out: IC50) [nM]
1 | CC(=O)O[C@]1(C(C)=O)CC[C@H]2[C@@H]3C[C@H](C)C4=CC(=O)CC[C@]4(C)[C@H]3CC[C@@]21C [MEDROXYPROGESTERONE ACETATE] | Not Active | Not Active | Not Active | Not Active | Not Active | Not Active | Not Active | –
2 | CC[C@H](C)C(=O)O[C@H]1CCC=C2C=C[C@H](C)[C@H](CC[C@@H]3C[C@@H](O)CC(=O)O3)[C@H]21 [MEVASTATIN] | Not Active | Not Active | Not Active | – | Not Active | Not Active | Not Active | 119
3 | CCN(CC)CCNC(=O)c1cc(Cl)c(N)cc1OC [METOCLOPRAMIDE] | Not Active | Not Active | Not Active | Not Active | Not Active | Not Active | Not Active | –
4 | Cc1nnc(NS(=O)(=O)c2ccc(N)cc2)s1 [SULFAMETHIZOLE] | Not Active | Not Active | Not Active | Not Active | Not Active | Not Active | Not Active | –
5 | CN1C(=O)OC(C)(C)C1=O [TRIMETHADIONE] | Not Active | Not Active | Not Active | Not Active | Not Active | Not Active | Not Active | –
6 | CC[C@H](C)[C@@H](CO[C@@H](Cc1ccccc1)C(=O)N[C@@H](CCS(C)(=O)=O)C(=O)OC(C)C)NC[C@@H](N)CS | Not Active | Not Active | Not Active | Not Active | Not Active | Not Active | Not Active | –
7 | OC[C@@H](O)[C@@H](O)[C@H](O)[C@H](O)CO [MANNITOL] | Not Active | Not Active | Not Active | Not Active | Not Active | Not Active | Not Active | –
8 | Cc1cn([C@H]2C=C[C@@H](CO)O2)c(=O)[nH]c1=O [STAVUDINE] | Not Active | Not Active | Not Active | Not Active | Not Active | Not Active | Not Active | –
9 | C[N+]1(C)[C@@H]2C[C@@H](OC(=O)[C@H](CO)c3ccccc3)C[C@H]1[C@@H]1O[C@@H]12.[Br-] [METHSCOPOLAMINE BROMIDE] | Not Active | Not Active | Not Active | Not Active | Not Active | Not Active | Not Active | –
10 | CC1=C(/C=C/C(C)=C/C=C/C(C)=C/C(=O)O)C(C)(C)CCC1 [TRETINOIN] | Not Active | Not Active | Not Active | Not Active | Not Active | Not Active | Not Active | –
